Data: PMC6467700 (Journal of medicinal chemistry, 2019)
Read-outs that look alike come from different tables or passages of the source.

How the values were obtained:
MOR [1] = target: T1, MOR (Mus musculus, UniProt P42866); experiment: Competition radioligand binding at the MOR; conditions: [3H]naloxone, CHO cells expressing mouse MOR
KOR [2] = target: T2, KOR (Mus musculus, UniProt P33534); conditions: read-out: Ki,κ; 50a; cited from earlier work
MOR [3] = conditions: peripherally selective MOR antagonist; cited from earlier work
MOR [4] = target: T1, MOR; conditions: cited from earlier work
DOR = DOR (Mus musculus, UniProt P32300); conditions: ref 57a, cited from earlier work
MOR [5] = target: T1, MOR; conditions: read-out: Ki (nM) MOR; ref 57a; cited from earlier work
KOR [6] = target: T2, KOR; conditions: ref 57a, cited from earlier work

T1 sequence (P42866 whole entry): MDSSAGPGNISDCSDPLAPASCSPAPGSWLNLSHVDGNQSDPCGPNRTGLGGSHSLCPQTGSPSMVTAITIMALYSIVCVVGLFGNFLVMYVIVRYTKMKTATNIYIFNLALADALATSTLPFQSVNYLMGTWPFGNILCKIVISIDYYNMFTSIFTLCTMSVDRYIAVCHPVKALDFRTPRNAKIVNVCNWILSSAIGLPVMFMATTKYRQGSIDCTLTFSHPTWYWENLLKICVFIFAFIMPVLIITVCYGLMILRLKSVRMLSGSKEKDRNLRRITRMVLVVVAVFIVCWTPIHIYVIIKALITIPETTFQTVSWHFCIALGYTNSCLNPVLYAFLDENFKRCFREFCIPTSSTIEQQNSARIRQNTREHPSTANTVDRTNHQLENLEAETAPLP
T2 sequence (P33534 whole entry): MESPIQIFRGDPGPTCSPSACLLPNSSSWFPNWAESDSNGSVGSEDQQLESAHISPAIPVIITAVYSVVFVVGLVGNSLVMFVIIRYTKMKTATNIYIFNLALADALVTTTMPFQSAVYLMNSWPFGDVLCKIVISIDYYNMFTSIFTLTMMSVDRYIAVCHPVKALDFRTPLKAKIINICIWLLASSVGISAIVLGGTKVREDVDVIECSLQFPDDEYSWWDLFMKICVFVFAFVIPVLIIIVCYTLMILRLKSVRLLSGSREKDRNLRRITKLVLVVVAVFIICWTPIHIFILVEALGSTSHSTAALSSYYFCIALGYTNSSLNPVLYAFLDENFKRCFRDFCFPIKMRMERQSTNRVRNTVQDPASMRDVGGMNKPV
Chain of DOR (P32300 whole entry): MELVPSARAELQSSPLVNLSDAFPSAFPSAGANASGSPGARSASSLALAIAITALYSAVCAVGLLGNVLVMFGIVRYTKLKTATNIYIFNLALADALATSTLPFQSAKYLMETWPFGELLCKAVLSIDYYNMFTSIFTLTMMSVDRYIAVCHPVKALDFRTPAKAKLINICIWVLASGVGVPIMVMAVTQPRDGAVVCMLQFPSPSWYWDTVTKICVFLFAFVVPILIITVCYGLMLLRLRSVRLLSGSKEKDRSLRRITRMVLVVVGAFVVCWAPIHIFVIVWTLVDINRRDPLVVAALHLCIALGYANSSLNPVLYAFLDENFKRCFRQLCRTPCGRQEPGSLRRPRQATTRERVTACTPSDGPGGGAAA

COC(=O)c1cnccc1C(=O)N[C@@H]1CC[C@@]2(O)[C@H]3Cc4ccc(O)c5c4[C@@]2(CCN3CC2CC2)[C@H]1O5 [Compound 6, 17-Cyclopropylmethyl-3,14β-dihydroxy-4,5α-epoxy-6β-[(3′-methylformate-4′-pyridyl)acetamido]morphinan]
Ki (nM) MOR (MOR [1]): nanomolar binding affinity

Oc1ccc2c3c1O[C@H]1c4[nH]c5c(c4C[C@@]4(O)[C@@H](C2)N(CC2CC2)CC[C@]314)C[C@@]1(O)[C@H]2Cc3ccc(O)c4c3[C@@]1(CCN2CC1CC1)[C@H]5O4 [norBNI]
Ki (KOR [2]): 1.8 nM

O=C(N[C@@H]1CC[C@@]2(O)[C@H]3Cc4ccc(O)c5c4[C@@]2(CCN3CC2CC2)[C@H]1O5)c1ccncc1 [NAP, 17-cyclopropylmethyl-3,14β-dihydroxy-4,5α-epoxy-6β-(4′-pyridylcarboxamido)-morphinan]
ED50 (MOR [3]): 8.8 µg/kg
MOR [35S]GTPγS Binding % Emax of DAMGO (MOR [4]; ref 44a): 22.72 ± 0.84%

Cc1cnccc1C(=O)N[C@@H]1CC[C@@]2(O)[C@H]3Cc4ccc(O)c5c4[C@@]2(CCN3CC2CC2)[C@H]1O5 [NMP, 17-cyclopropylmethyl-3,14β-dihydroxy-4,5α-epoxy-6β-{[4′-(3′-methylpyridyl)]carboxamido}morphinan]
Ki (DOR; read-out: Ki (nM) DOR): 273.6 ± 1.8 nM
Selectivity δ/μ (DOR): 470
EC50 (MOR [4]; read-out: MOR [35S]GTPγS Binding EC50, ref 57a): 1.52 ± 0.26 nM
MOR [35S]GTPγS Binding % Emax of DAMGO (MOR [4]; ref 57a): 30.63 ± 0.55%
Ki (MOR [5]): 0.58 ± 0.25 nM
Ki (KOR [6]; read-out: Ki (nM) KOR): 96.7 ± 12.2 nM
Selectivity κ/μ (KOR [6]): 166
